Source: ChEMBL document CHEMBL3112471, “Synthesis and evaluation of anti-tubercular activity of 6-(4-substitutedpiperazin-1-yl) phenanthridine analogues” (Eur J Med Chem, 2014)
≈ marks a conversion by molar mass, not a printed value.

Experiments:
[1] = test system: Mycobacterium tuberculosis; experiment: Antitubercular activity against Mycobacterium tuberculosis H37Rv after 5 days by microplate Alamar Blue assay; format: functional; conditions: 120 h
[2] = Selectivity index, ratio of IC50 for mouse RAW264.7 cells to MIC for Mycobacterium tuberculosis H37Rv; format: toxicity; conditions: read-out: Selectivity Index
RAW264.7 = experiment: Cytotoxicity against mouse RAW264.7 cells after 72 hrs by MTT assay; format: cell-based; conditions: RAW264.7, 72 h
[3] = Cytotoxicity against mouse RAW264.7 cells at 50 uM after 72 hrs by MTT assay; format: cell-based; conditions: read-out: INH

| SMILES | MIC99 [1] [µg/mL] | also measured |
| --- | --- | --- |
| c1ccc(CCN2CCN(c3nc4ccccc4c4ccccc34)CC2)cc1 | 6.25 (≈ 17 µM) |  |
| c1ccc(C(c2ccccc2)N2CCN(c3nc4ccccc4c4ccccc34)CC2)cc1 | 3.12 (≈ 7.27 µM) |  |
| c1cnc(N2CCN(c3nc4ccccc4c4ccccc34)CC2)nc1 | 1.56 (≈ 4.57 µM) | selectivity ratio [2]: > 25; IC50 (RAW264.7): > 40 µg/mL; cytotoxicity at 72 h, 50 µM [3]: 18.2% |
| c1ccc(N2CCN(c3nc4ccccc4c4ccccc34)CC2)nc1 | 1.56 (≈ 4.58 µM) | selectivity ratio [2]: > 25; IC50 (RAW264.7): > 40 µg/mL; cytotoxicity at 72 h, 50 µM [3]: 16.4% |
| CCN1CCN(c2nc3ccccc3c3ccccc23)CC1 | 6.25 (≈ 21.4 µM) |  |
| Oc1cccc(N2CCN(c3nc4ccccc4c4ccccc34)CC2)c1 | 3.12 (≈ 8.79 µM) |  |
| O=C(O)c1cn(C2CC2)c2cc(N3CCN(C(=O)CN4CCN(c5nc6ccccc6c6ccccc56)CC4)CC3)c(F)cc2c1=O | 12.5 (≈ 19.7 µM) |  |
| C=Cc1ccc(CN2CCN(c3nc4ccccc4c4ccccc34)CC2)cc1 | 25 (≈ 65.9 µM) |  |
| C(=C\c1ccccc1)/CN1CCN(c2nc3ccccc3c3ccccc23)CC1 | 25 (≈ 65.9 µM) |  |
| c1ccc2c(c1)nc(N1CCNCC1)c1ccccc12 | 25 (≈ 94.9 µM) |  |
| Cc1cccc(N2CCN(c3nc4ccccc4c4ccccc34)CC2)c1 | 6.25 (≈ 17.7 µM) |  |
| Clc1ccc(N2CCN(c3nc4ccccc4c4ccccc34)CC2)cc1 | 50 (≈ 134 µM) |  |
| Clc1ccccc1N1CCN(c2nc3ccccc3c3ccccc23)CC1 | 6.25 (≈ 16.7 µM) |  |
| O=[N+]([O-])c1ccc(N2CCN(c3nc4ccccc4c4ccccc34)CC2)cc1 | 1.56 (≈ 4.06 µM) | selectivity ratio [2]: > 25; IC50 (RAW264.7): > 40 µg/mL; cytotoxicity at 72 h, 50 µM [3]: 21.4% |
| COc1cccc(N2CCN(c3nc4ccccc4c4ccccc34)CC2)c1 | 12.5 (≈ 33.8 µM) |  |
| N#Cc1ccccc1N1CCN(c2nc3ccccc3c3ccccc23)CC1 | 50 (≈ 137 µM) |  |
| COc1ccc2nc(C)cc(SCc3ccc(C(C)(C)C)cc3)c2c1 |  | MIC [1]: 0.01 µg/mL (≈ 0.0284 µM) |
| CN1CCN(c2nc3ccccc3c3ccccc23)CC1 | 6.25 (≈ 22.5 µM) |  |
| COc1ccc2cc(/C=N/Nc3ccnc4cc(OC)ccc34)ccc2c1 |  | MIC [1]: 0.22 µg/mL (≈ 0.616 µM) |
| NNC(=O)c1ccncc1 [ISONIAZID] | 0.36 (≈ 2.63 µM) |  |
| CO[C@H]1/C=C/O[C@@]2(C)Oc3c(C)c(O)c4c(O)c(c(/C=N/N5CCN(C)CC5)c(O)c4c3C2=O)NC(=O)/C(C)=C\C=C\[C@H](C)[C@H](O)[C@@H](C)[C@@H](O)[C@@H](C)[C@H](OC(C)=O)[C@@H]1C [RIFAMPIN] | 0.02 (≈ 0.0243 µM) |  |
